Here are results for four compounds from patent publication US9290484B2, “Furyl and thienyl triazole derivatives and therapeutic uses thereof” (University of Medicine and Dentistry of New Jersey, priority 2013, dated 2016).

In experiment [1] the test system is nitric oxide production induced by gamma interferon in PAM212 keratinocytes. To be noted: read-out: Nitric oxide inhibition IC50, 100 U/ml gamma interferon, nitrite at 72 hours.
Method: The assay for measurement of anti-inflammatory activity is based on the ability of the cytokine gamma interferon to induce the formation of nitric oxide synthase and subsequently of nitric oxide itself in keratinocytes.
For each assay the cells were inoculated into a 24-well tissue culture plate at 250,000 cells per well in growth medium. After 24 hours the medium was changed to phenol red and serum-free DMEM containing 100 U/ml of gamma interferon. Nitric oxide production was thereby initiated and at 72 hours post inoculation was quantified spectrophotometrically by measuring the accumulation of nitrite in the culture medium using the Greiss reagent. This was done by drawing an aliquot of the culture medium and mixing it with equal volumes of 1.0% sulfanilamide and 0.1% N-1-naphthylethylene diamine in 50% phosphoric acid. […] Compounds according to the present invention were assayed for their anti-inflammatory activity by examining their ability to suppress nitric oxide production in this assay.
The subject of another experiment is E. coli. Nature of the experiment: microbe, parasite or virus in culture. To be noted: for Antibacterial MIC E. Coli: serial two-fold dilutions, IA = Inactive. How it is done:
(§1) Compounds were tested using E. coli, G. vaginalis or S. aureus. Bacteria were grown on appropriate media containing a range of concentrations of the test compounds which were obtained by serial two-fold dilutions. Concentrations used were at least twice the MIC to at least ½ the break point for susceptibility to inhibition. MICs were determined spectrophotometrically by measuring changes in absorbance of bacterial cultures in the absence and presence of the test compounds.

The next experiment relates to G. vaginalis. Description: Antibacterial MIC, G. vaginalis. The conditions noted are these: serial two-fold dilutions, IA = Inactive. The experiment is classed as cell-based, Gardnerella vaginalis. Here is the method:
as §1

Values after ≈ are worked out from the molar mass of the structure shown.

On to `O=[N+]([O-])c1ccccc1C=CC=Nn1c(S)nnc1-c1cccs1` [Compound 3a, 4-[Imino-(3-(−2-nitrophenyl)-2-ethylenyl)]-3-mercapto-5-(2-thienyl)-4H-1,2,4-triazole], for which the IC50 in experiment [1] is 14 µM.

For the compound `O=[N+]([O-])c1ccc(C=CC=Nn2c(S)nnc2-c2ccco2)o1` [Compound 3c, 4-[imino-(3-(5-nitro-2-furyl)-2-ethylenyl)]-3-mercapto-5-(2-furoyl)-4H-1,2,4-triazole], in the experiment with E. coli, the “Antibacterial MIC E. Coli” value was 16.6 µg/mL. Also, the “Antibacterial MIC G. Vaginalis” value with G. vaginalis came out at 16.6 µg/mL.

With `O=[N+]([O-])c1ccc(C=Nn2c(S)nnc2-c2cccs2)o1` [Compound 3d], the “Antibacterial MIC E. Coli” value with E. coli amounted to 16.0 µg/mL. The “Antibacterial MIC G. Vaginalis” value in the experiment on G. vaginalis worked out at 3.2 µg/mL.

For `O=C1CN(/N=C/c2ccc([N+](=O)[O-])o2)C(=O)N1` [NF, Nitrofurantoin, reference compound], the MIC is 1.2 µg/mL (≈ 5.04 µM) in the experiment on E. coli (Escherichia coli, read-out: Antibacterial MIC E. Coli) and 11.9 µg/mL (≈ 50 µM) in the experiment on G. vaginalis (Gardnerella vaginalis).
